Laboratory results reported in patent US20080058324A1, “Alpha-Keto Carbonyl Calpain Inhibitors” (SANTHERA PHARMACEUTICALS (SCHWEIZ) AG, priority 2004, published 2008).
pIC50: −log10 of the molar value.

How the values were obtained:
20S Proteasome = biological target: T1, 20S Proteasome (Oryctolagus cuniculus, UniProt G1T4Q9); test: 20S Proteasome Assay; assay type: biochemical, Rabbit; settings: read-out: 20S Prot IC50
T1 sequence (G1T4Q9 60-263): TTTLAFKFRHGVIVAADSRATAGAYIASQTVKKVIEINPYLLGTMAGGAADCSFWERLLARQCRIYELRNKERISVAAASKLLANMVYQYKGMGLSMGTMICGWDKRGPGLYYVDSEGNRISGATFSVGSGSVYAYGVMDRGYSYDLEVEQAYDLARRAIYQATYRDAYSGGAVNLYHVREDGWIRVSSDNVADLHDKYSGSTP
Experimental: 25 μl of a reaction buffer containing 400 μM of the fluorogenic substrate Suc-Leu-Leu-Val-Tyr-AMC (Bachem) are dispensed per well of a white microtiter plate. Test compounds dissolved in 0.5 μl DMSO are added. To start the reaction; 25 μl of reaction buffer containing 35 ng of enzyme (20S Proteasome, Rabbit, Calbiochem) are added. The increase in fluorescence (excitation at 360 nm; emission at 440 nm) is measured over 30 min at 30° C. at 30″. The IC50's are then determined from the slopes.

mdx mouse = mdx mouse model for Duchenne Muscular Dystrophy, longterm treatment; assay type: in vivo; settings: mdx mice, 4 weeks; for adverse effects upon longterm treatment: 20 mg/kg every 2nd day
Experimental: The mdx mouse is a well established animal model for Duchenne Muscular Dystrophy (Bulfield G., Siller W. G., Wight P. A., Moore K. J., X chromosome-linked muscular dystrophy (mdx) in the mouse, Proc. Natl. Acad. Sci. USA., 1984, 81(4), 1189-1192). Selected compounds were tested in longterm treatments of mdx mice, according to the procedures described below.
Mouse strains: C57BL/10scsn and C57BL/10scsn mdx mouse strains were purchased at The Jackson Laboratory (ME, USA) and bred inhouse. Mouse males were sacrificed at the age of 3 or 7 weeks by CO2 asphyxiation.
Treatment: Compounds were dissolved in 50% PEG, 50% saline solution and applied by i.p. injection.
Histology: Tibialis anterior (TA), quadriceps (Quad), and diaphragm (Dia) muscles were collected and mounted on cork supports using gum tragacanth (Sigma-Aldrich, Germany). The samples were snap-frozen in melting isopentane and stored at −80° C. 12 μm thick cryosections of the mid-belly region of muscles were prepared. For staining, sections were air dried and fixed with 4% PFA in PBS for 5 minutes, washed 3 times with PBS and incubated over night at 4° C. in PBS containing 2 μg/ml Alexa Fluor™ 488 conjugated wheat-germ agglutinin (WGA-Alexa, Molecular Probes, Eugen, Oreg., USA) to stain membrane-bound and extracellular epitopes and 1 μg/ml 4′,6-diamidino-2-phenylindole (DAPI; Molecular Probes) to stain nuclei.
Image acquisition and analysis: Fluorescence microscopy images of both labels were acquired using a digital camera (ColorView II, Soft Imaging System, Müinster, Germany) coupled to a fluorescence microscope (Vanox S, Olympus, Tokyo, Japan). Combination of these two stainings to a composite image, assembling of several images to a complete image of the entire muscle cross-section and further semi-automated analysis was performed using the image analysis program AnalySIS (Soft Imaging System). Image analysis of 1200-2900 muscle fibers in each section was performed in three steps: 1) determination of the muscle fiber boundaries, 2) determination of the muscle fiber size, and 3) determination of the percentage of muscle fibers containing centralized nuclei. Six different geometrical parameters were tested for the determination of the muscle fiber size: (a) the “minimal feret” (the minimum distance of parallel tangents at opposing borders of the muscle fiber), (b) the “area”, (c) the “minimal inner diameter” (the minimum diameter through the center of the muscle fiber), (d) the “minimal diameter” (the minimum diameter of a muscle fiber for angles in the range 0° through 179° with step width 1°, (e) the “minimal outer diameter” (the minimum diameter through the muscle fiber from outer border to outer border), and (f) the “perimeter”. The variance coefficient of the muscle fiber size is defined as follows: variance coefficient=(standard deviation of the muscle fiber size/mean of the muscle fiber size of the section)*[…]. For statistical analysis of different variance coefficient values Mann-Whitney U test was used.
Selected Examples of the present invention were active in the mdx mouse model at 20 mg/kg every 2nd day, using 3 week old mice and a treatment period of 4 weeks (N=5-10).

[1] = test system: utrophin expression in human DMD myotubes; test: Utrophin Expression Assay in Human Myotubes; assay type: cell-based; settings: 50 nM test compound
Experimental: Utrophin induction was determined by a method which was similar to a method of I. Courdier-Fruh et al., Neuromuscular Disord., 2002, 12, S95-S104.
Primary human muscle cell cultures were prepared from muscle biopsies taken during orthopedic surgery from Duchenne patients (provided by the Association Francaise contre les Myopathies). Cultures were prepared and maintained according to standard protocols. Induction of utrophin expression in human DMD myotubes was assayed at 50 nM or 500 nM of test compound added in differentiation medium. Normalized utrophin protein levels are determined after 5-6 d of incubation by cell-based ELISA with a mouse monoclonal antibody to the aminoterminal portion of utrophin (NCL-DRP2, Novocastra Laboratories). For calibration, the cell density and differentiation was determined by absorbance measurements of the total dehydrogenase enzyme activity in each well using the colorimetric CellTiter 96®AQ One Solution Reagent Proliferation Assay (Promega) according to the manufacturer's recommendation. […] Utrophin protein levels were determined immunologically with utrophin-specific primary antibody and with anappropriate peroxidase-coupled secondary antibody (Jackson ImmunoResearch Laboratories) using QuantaBlu™ Fluorogenic Peroxidase Substrate Kit (Pierce) for detection. […] The primary readout of this signal is presented in arbitrary units. […]

[2] = 20 mg/kg every 2nd day i.p., diaphragm, vs vehicle-treated mdx mice
[3] = 20 mg/kg every 2nd day i.p., tibialis anterior, vs vehicle-treated mdx mice

| Compound | pIC50 (20S Proteasome) | decrease in the variance coefficient of the muscle fiber size, Dia (mdx mouse; [2]) [%] | reduction of the percentage of centralized nuclei, Dia (mdx mouse; [2]) [%] | decrease in the variance coefficient of the muscle fiber size, Quad (mdx mouse; 20 mg/kg every 2nd day i.p., quadriceps, vs vehicle-treated mdx mice) [%] | reduction of the percentage of centralized nuclei, TA (mdx mouse; [3]) [%] | adverse effects upon longterm treatment (mdx mouse) | melting point [°C] | UTR Induction @50 nM [1] [%] | decrease in the variance coefficient of the muscle fiber size, TA (mdx mouse; [3]) [%] |
| --- | --- | --- | --- | --- | --- | --- | --- | --- | --- |
| CCNC(=O)C(=O)C(Cc1ccc(OC)cc1)NC(=O)C(NC(=O)C(CCc1ccccc1)NC(=O)CCc1cccs1)C(C)C (stereo not shown) [Example 520] | 7.64 | 40 | 26 | 31 | 13 | No prominent adverse effects | 238 to 240 | 134 |  |
| CCNC(=O)C(=O)[C@H](Cc1ccc(Cl)cc1)NC(=O)[C@@H](NC(=O)[C@H](Cc1ccccc1)NC(=O)CCCCc1cccs1)C(C)C [Example 1] | 6.92 | 26 |  |  | 17 | No prominent adverse effects |  |  | 26 |
| CCNC(=O)C(=O)C(Cc1ccc(Cl)cc1)NC(=O)C(NC(=O)C(Cc1cccc2ccccc12)NC(=O)CCCCc1cccs1)C(C)C (stereo not shown) [Example 22] | > 8.00 |  |  |  |  |  | 238 to 241 | 117 |  |
